Legend:
damaged coronary artery = experiment: Cyclic flow reductions (CFRs) in damaged, stenosed coronary artery; assay type: in vivo, dogs; details: approximately 0.5 mM NO, given selectively into circumflex coronary artery
platelet deposition [1] = experiment: Indium-111-labeled platelet deposition on coated 5 FR USC1 catheters in femoral arteries; assay type: in vivo, dogs; details: 5 FR catheters in dog femoral arteries 2 hours, counted four minutes, average of three
Source text: In addition, three pairs of 5 FR USC1 catheters were studied. One catheter was soaked in 5% BSA, while the other catheter was soaked in a mixture of S-nitroso BSA for one hour. The catheters were rinsed with saline and one each was inserted into the right or left femoral arteries of the dogs described above, and left for two hours. Each catheter was flushed with normal saline every one-half hour, but no heparin was given. The catheters were then removed and rinsed with saline. Equal lengths of the catheters were cut from the distal ends and each one was placed in a Nal gamma counter and the radioactivity was counted for four minutes.

platelet deposition [2] = experiment: Indium-111-labeled platelet deposition and thrombus on coated dacron grafts in transected carotid arteries; assay type: in vivo, dogs; details: for average percent increase in graft weight due to thrombus formation on the luminal surface: dacron grafts, dog carotid artery, 2 hours, three grafts
Source text: This method requires the removal of platelets from an animal or human subject. The platelets are labeled with a radioactive material such as Indium^111, which emits gamma rays, detectable by a gamma counter placed 3 to 6 inches away from the source of radioactive platelets. The labeled platelets are either reinjected into the animal or human […], or contacted with the artificial surface […]. Platelets will adhere to artificial surfaces or acutely damaged arterial surfaces. Thus, the number of normal platelets and radioactive platelets which stick to the surface is an indication of the thrombogenicity of the surface.
First, the inventors coated dacron grafts and cardiac catheters with S-nitroso-bovine serum albumin (BSA). In three separate experiments, an identical pair of 6 mm. (internal diameter) knitted dacron grafts, 5 cm. in length, were prepared for surgical placement in the transected carotid arteries of three anesthetized dogs. No heparin was given. One graft was soaked in 5% BSA and the other graft was soaked in 5% BSA combined with 0.5 mM nitric oxide (producing S-nitroso-BSA) for one hour prior to insertion, and then rinsed in saline. The grafts were sutured in place with a continuous 6-0 proline suture.
Indium^111-labeled platelets are very useful in detecting platelet accumulation on vascular grafts. Therefore, Indium^111-labeled platelets were prepared according to standard methods described in Heyns “Method for Labeling Platelets with In^111-oxine”. In: Platelet Kinetics and Imaging Vol. II, Editors Heyns et al., CRC Press, 1985; and Sheffel et al., J. Nucl. Med., 20: 524-531, 1979, and injected prior to insertion of the grafts. […] The grafts were then placed in a Nal gamma well counter and counted for four minutes.

platelet deposition [3] = experiment: Indium-111-labeled platelet deposition on coated, dried and stored PVC tubing placed as femoral artery shunt; assay type: in vivo, dog; details: PVC tubing used three days after coating, femoral artery shunt 2 hours
Procedure: The inventors conducted an additional experiment to investigate whether S-nitroso-BSA can be used to coat a surface such as polyvinyl chloride (PVC), and in addition, whether such surfaces can be treated at one time, and used at a later time. In this experiment, three pieces of PVC, 3 mm in internal diameter and 2 cm. in length were soaked in BSA for 4 hours, allowed to dry, and placed in a dark place. Three identical pieces of PVC tubing were soaked in an S-nitroso-BSA solution for 4 hours, dried, and also placed in the dark.
Three days after coating, a pair of PVC tubing pieces, one coated with BSA, and one coated with S-nitroso-BSA, were placed as a shunt in each of the two femoral arteries of a dog. The dog was injected with Indium^111-labeled platelets as previously described. Two hours after the PVC shunts were placed in the circulation with radioactive platelets, they were removed and placed in the Nal gamma counter.

[4] = test system: balloon-injured rabbit femoral artery; experiment: Neointimal proliferation after balloon injury of femoral artery (morphometry); assay type: in vivo; details: 14 days after balloon injury, local delivery 15 minutes
Procedure: Femoral arteries were isolated and balloon injured as described below. pS-BSA or pS-NO-BSA were applied in a paired fashion directly into the arterial lumen for 15 minutes and then blood flow was re-established. […] Neointimal proliferation is reported as the absolute neointimal area in FIG. 5A and as a ratio of neointima/media in FIG. 5B in 4-6 segments from each artery. Data are expressed as mean +/− SEM and are derived from 15 vessels in the BSA and S-NO-BSA groups, 11 vessels in the PS-BSA group, 7 vessels in the PS-NO-BSA and SHAM groups, and 5 in the SNP group. *P<0.05, pS-NO-BSA vs. PS-BSA. +/+P<0.05 Sodium nitroprusside vs. pS-BSA for both FIGS. 5A and 5B.
Animal Preparation: All animal preparations were performed within the institutional guidelines of the Brockton/West Roxbury Department of Veteran Affairs Medical Center and Boston University Medical Center, and in accordance with the guiding principles of the American Physiological Society. New Zealand white rabbits (3.5-4.2 kg) of either sex were premedicated with 5 mg/kg intramuscular (IM) xylazine hydrochlolide (Miles Pharmaceuticals, Shawnee Mission, Kans.), and 0.1 mg/kg subcutaneous (SC) atropine sulfate (Lyphomed, Deerfield, Ill.) fifteen minutes prior to the induction of anesthesia. Anesthesia was induced with 40 mg/kg IM ketamine hydrochloride (Fort Dodge Laboratories, Fort Dodge, Ind.) and 5 mg/kg IM acepromazine maleate (Aveco Company, Inc., Fort Dodge, Ind.). Additional doses of ketamine hydrochloride were administered as necessary to maintain anesthesia. For survival studies, 100,000 U penicillin G (Apothecon of Bristol-Myers Squibb, Princeton, N.J.), was administered IM perioperatively. The skin over the femoral arteries was next infiltrated with 1% lidocaine (Astra Pharmaceuticals, Inc., Westborough, Mass.) and the common femoral arteries were exposed from the inguinal ligament to the superficial femoral artery. Arteries were cleared of connective tissue, side branches were ligated, and the superficial femoral artery was suspended with silk ties. A 1.5-to-2.0 cm length of femoral artery was isolated from the circulation proximally and distally with neurosurgical microaneurysm clips. The superficial femoral-artery was cannulated with a 2F Fogarty balloon catheter (American Edwards Laboratories, Santa Ana, Calif.) that was passed into the isolated segment of femoral artery. The balloon was inflated with sufficient air to generate slight resistance and withdrawn three times. A 20 g angiocath was then inserted in the arteriotomy and 1 ml of 25.8 mg/ml PS-NO-BSA or 49.2 mg/ml S-NO-BSA was administered over 15 minutes. The contralateral femoral artery was prepared identically and an appropriate control (25.8 mglml pS-BSA, 49.2 mg/ml BSA or 0.66 mg/ml sodium nitroprusside) was administered. For binding studies, 0.5 ml of [^125I]-labeled nitrosylated albumin or control was administered. Following administration of the agent, the superficial femoral artery was ligated and flow reestablished. Sham-operated animals underwent surgical exposure and sidebranch ligation, but no balloon injury was performed or local delivery administered. The area of balloon injury was marked by surgical staples in the adjacent muscle fascia. For chronic studies, the incision was closed with subcuticular absorbable suture and the animals allowed to recover. For acute studies, blood was allowed to circulate through the treated areas for 15 minutes prior to vessel harvest. In some experiments, a distant control vessel, the right carotid artery, was isolated and harvested without any other manipulation.
A 7F plastic cannula was inserted into the abdominal aorta and the vessels perfused clear with saline followed by fixation at 100 mm Hg pressure with 10% buffered formalin. The vessels were stored in 10% buffered formalin and the samples paraffin-embedded and microtome-sectioned. […]

platelet deposition [5] = details: systemic administration, porcine carotid model; cited from earlier work
[6] = test system: clotting on the catheter wall; experiment: Clotting on coated 3 FR USC1 catheters implanted in carotid artery; assay type: in vivo, dogs; details: catheters soaked 12 hours, in dog carotid artery 6-8 hours, no heparin
Procedure: In five anesthetized dogs, both carotid arteries were exposed. Two 3 FR USC1 catheters were prepared for arterial implantation. One catheter was soaked in a 5% BSA solution for 12 hours, while the other was soaked in a 5% BSA solution which also contained 1 mg/ml of sodium nitroprusside. One each of the two coated catheters was placed randomly in the right or left carotid artery of the dog through a small incision sealed with a 6-0 proline suture. The catheters were advanced for 5 cm into the arterial lumen. The dogs were not given any heparin. The catheters were removed 6-8 hours later and examined for clotting on the catheter wall and at the site where the catheter entered the carotid wall.

Molecule	passivation of damaged arterial wall compared with sodium nitroprusside (damaged coronary artery)	Indium^111-labeled platelet counts on catheter (platelet deposition [1])	average percent increase in graft weight due to thrombus formation on the luminal surface (platelet deposition [2])	Indium^111-labeled platelet counts on PVC shunt (platelet deposition [3])	neointima/media ratio [4]	neointimal area [4]	reduction in platelet deposition (platelet deposition [5]) [fold]	Indium^111-labeled platelet counts on graft (platelet deposition [2]; dacron grafts soaked 1 h, in dog carotid artery 2 hours, average of three grafts)	clotting on the catheter wall and entry site [6]
S-nitroso-bovine serum albumin [S-nitroso-BSA]	better passivation and the effect lasts longer	2,850±800 counts	196% +/−71%	97,510 counts/4 minutes	0.72+/−0.084	1.83+/−0.18 ×10^5 μm^2			
[NH-]c1c[n+](N2CCOCC2)no1 [SIN-1]							2.3		
bovine serum albumin [BSA, reference compound]		9,000±1,100 counts	410% +/−97%	200,870 counts/4 minutes	1.07+/−0.167	2.54+/−0.33 ×10^5 μm^2		654,000 +/−89,000 counts/4 minutes	considerably more clotting
